Laboratory results reported in ChEMBL document CHEMBL4507280 (2021).

Experiments:
[1] = system: Tyrosine-protein kinase ABL1 (Homo sapiens), P00519 [F317I]; conditions: Compound concentration 1000.0 nM
[2] = target: Tyrosine-protein kinase ABL1 (Homo sapiens) (UniProt P00519); conditions: Compound concentration 1000.0 nM
[3] = target: Tyrosine-protein kinase ABL2 (Homo sapiens) (UniProt P42684); conditions: Compound concentration 1000.0 nM
[4] = target: RAC-beta serine/threonine-protein kinase (Homo sapiens) (UniProt P31751); conditions: Compound concentration 1000.0 nM
[5] = target: ALK tyrosine kinase receptor (Homo sapiens) (UniProt Q9UM73); conditions: Compound concentration 1000.0 nM
[6] = target: Mitogen-activated protein kinase kinase kinase 6 (Homo sapiens) (UniProt O95382); conditions: Compound concentration 1000.0 nM
Mitogen-activated protein kinase kinase kinase 6 (Homo sapiens), sequence (O95382 whole entry): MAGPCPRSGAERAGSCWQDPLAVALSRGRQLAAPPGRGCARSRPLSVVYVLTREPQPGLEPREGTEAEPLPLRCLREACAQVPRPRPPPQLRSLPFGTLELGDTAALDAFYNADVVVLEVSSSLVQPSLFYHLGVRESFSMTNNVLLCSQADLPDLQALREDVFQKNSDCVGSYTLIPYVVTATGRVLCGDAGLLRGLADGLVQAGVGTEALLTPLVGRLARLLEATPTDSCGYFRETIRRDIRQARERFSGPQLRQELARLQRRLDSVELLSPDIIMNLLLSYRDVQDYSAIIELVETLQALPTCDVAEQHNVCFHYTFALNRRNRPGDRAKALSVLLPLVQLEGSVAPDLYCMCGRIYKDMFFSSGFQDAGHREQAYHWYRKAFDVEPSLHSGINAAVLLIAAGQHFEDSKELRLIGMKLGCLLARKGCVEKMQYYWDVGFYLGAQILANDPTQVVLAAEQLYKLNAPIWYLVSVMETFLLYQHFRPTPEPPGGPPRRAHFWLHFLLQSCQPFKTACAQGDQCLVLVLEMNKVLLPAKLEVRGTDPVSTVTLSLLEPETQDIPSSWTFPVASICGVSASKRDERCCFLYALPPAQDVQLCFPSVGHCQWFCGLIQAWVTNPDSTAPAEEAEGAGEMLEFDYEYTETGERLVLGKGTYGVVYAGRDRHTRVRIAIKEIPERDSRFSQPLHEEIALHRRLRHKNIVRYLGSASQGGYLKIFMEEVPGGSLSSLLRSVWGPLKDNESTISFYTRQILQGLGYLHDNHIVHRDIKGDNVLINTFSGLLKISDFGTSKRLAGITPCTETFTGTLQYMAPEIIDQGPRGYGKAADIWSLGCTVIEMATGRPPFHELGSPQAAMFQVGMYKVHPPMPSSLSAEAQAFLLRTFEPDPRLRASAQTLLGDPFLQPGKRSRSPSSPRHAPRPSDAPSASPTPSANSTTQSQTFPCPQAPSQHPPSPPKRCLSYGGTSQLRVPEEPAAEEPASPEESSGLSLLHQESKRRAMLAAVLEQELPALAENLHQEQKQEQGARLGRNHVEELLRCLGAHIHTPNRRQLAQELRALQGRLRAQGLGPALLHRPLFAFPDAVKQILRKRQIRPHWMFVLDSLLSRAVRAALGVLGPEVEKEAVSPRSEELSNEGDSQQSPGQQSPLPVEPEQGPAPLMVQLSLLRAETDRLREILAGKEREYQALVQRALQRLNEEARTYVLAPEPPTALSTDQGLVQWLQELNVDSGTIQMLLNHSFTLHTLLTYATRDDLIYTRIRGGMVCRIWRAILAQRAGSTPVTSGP

[7] = target: Aurora kinase C (Homo sapiens) (UniProt Q9UQB9); conditions: Compound concentration 1000.0 nM
[8] = target: Calcium/calmodulin-dependent protein kinase type 1G (Homo sapiens) (UniProt Q96NX5); conditions: Compound concentration 1000.0 nM
[9] = target: Calcium/calmodulin-dependent protein kinase type II subunit beta (Homo sapiens) (UniProt Q13554); conditions: Compound concentration 1000.0 nM
[10] = target: Cyclin-dependent kinase 19 (Homo sapiens) (UniProt Q9BWU1); conditions: Compound concentration 1000.0 nM
Cyclin-dependent kinase 19 (Homo sapiens), sequence (Q9BWU1 whole entry): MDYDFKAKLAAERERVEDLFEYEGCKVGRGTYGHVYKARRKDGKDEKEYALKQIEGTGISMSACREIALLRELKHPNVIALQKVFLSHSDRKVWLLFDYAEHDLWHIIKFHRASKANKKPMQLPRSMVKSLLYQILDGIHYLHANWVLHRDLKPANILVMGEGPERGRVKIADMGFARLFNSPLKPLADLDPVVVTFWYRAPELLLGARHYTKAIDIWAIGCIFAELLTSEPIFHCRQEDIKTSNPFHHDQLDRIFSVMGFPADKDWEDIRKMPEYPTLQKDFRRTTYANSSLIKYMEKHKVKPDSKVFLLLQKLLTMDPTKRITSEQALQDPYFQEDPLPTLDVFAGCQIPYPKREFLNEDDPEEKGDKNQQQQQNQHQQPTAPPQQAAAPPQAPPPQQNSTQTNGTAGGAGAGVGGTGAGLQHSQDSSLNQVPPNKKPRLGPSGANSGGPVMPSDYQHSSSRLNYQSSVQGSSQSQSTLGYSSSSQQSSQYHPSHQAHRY

[11] = target: Cyclin-dependent kinase 9 (Homo sapiens) (UniProt P50750); conditions: Compound concentration 1000.0 nM
[12] = target: Cyclin-dependent kinase-like 1 (Homo sapiens) (UniProt Q00532); conditions: Compound concentration 1000.0 nM
[13] = target: Serine/threonine-protein kinase Chk2 (Homo sapiens) (UniProt O96017); conditions: Compound concentration 1000.0 nM
Serine/threonine-protein kinase Chk2 (Homo sapiens), sequence (O96017 whole entry): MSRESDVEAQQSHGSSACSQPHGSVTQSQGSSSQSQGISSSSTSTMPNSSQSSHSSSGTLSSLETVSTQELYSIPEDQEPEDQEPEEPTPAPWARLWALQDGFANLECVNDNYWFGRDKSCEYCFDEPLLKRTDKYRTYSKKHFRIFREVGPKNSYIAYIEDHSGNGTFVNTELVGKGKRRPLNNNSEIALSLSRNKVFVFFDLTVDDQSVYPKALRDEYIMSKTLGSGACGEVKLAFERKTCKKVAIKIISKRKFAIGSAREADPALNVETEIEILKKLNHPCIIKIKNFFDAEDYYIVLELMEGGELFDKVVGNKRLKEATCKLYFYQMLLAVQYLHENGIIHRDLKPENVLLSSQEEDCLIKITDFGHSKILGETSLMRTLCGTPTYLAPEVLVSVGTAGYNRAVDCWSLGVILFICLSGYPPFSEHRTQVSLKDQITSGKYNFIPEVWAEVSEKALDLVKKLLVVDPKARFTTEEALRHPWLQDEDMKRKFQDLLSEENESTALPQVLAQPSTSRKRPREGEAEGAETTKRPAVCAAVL

[14] = target: Dual specificity protein kinase CLK2 (Homo sapiens) (UniProt P49760); conditions: Compound concentration 1000.0 nM
[15] = target: Tyrosine-protein kinase CSK (Homo sapiens) (UniProt P41240); conditions: Compound concentration 1000.0 nM
Tyrosine-protein kinase CSK (Homo sapiens), sequence (P41240 2-450 limits assumed): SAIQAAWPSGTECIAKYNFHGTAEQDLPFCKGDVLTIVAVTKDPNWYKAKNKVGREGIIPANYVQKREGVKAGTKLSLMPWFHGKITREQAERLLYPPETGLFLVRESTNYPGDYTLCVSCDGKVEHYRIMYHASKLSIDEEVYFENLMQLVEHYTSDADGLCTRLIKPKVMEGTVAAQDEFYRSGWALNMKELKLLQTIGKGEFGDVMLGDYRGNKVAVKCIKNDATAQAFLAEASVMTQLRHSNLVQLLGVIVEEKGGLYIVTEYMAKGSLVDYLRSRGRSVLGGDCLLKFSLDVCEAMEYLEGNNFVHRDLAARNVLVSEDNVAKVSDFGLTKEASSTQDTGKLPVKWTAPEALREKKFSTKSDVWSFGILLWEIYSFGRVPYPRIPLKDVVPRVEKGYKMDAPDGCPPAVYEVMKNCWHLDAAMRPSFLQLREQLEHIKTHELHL

[16] = target: Casein kinase I isoform alpha-like (Homo sapiens) (UniProt Q8N752); conditions: Compound concentration 1000.0 nM
[17] = target: Megakaryocyte-associated tyrosine-protein kinase (Homo sapiens) (UniProt P42679); conditions: Compound concentration 1000.0 nM
[18] = target: Serine/threonine-protein kinase DCLK3 (Homo sapiens) (UniProt Q9C098); conditions: Compound concentration 1000.0 nM
Serine/threonine-protein kinase DCLK3 (Homo sapiens), sequence (Q9C098 whole entry): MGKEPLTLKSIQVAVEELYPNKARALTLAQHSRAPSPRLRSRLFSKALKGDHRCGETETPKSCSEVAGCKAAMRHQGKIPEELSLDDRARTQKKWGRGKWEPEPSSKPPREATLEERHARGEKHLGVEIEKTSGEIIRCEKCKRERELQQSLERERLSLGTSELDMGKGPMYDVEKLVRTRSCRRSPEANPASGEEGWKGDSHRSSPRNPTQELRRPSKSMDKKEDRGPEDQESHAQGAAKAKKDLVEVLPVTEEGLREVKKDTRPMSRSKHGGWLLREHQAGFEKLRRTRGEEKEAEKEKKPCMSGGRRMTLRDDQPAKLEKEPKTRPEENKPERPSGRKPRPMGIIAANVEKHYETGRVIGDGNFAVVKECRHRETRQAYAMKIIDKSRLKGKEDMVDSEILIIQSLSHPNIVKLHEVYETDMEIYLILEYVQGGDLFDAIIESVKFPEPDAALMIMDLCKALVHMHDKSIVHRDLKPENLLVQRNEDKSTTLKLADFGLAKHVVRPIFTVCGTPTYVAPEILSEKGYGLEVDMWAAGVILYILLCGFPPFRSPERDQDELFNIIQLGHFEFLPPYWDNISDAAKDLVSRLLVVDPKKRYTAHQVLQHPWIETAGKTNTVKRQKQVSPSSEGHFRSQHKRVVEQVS

[19] = target: Eukaryotic translation initiation factor 2-alpha kinase 1 (Homo sapiens) (UniProt Q9BQI3); conditions: Compound concentration 1000.0 nM
[20] = target: Mitogen-activated protein kinase 3 (Homo sapiens) (UniProt P27361); conditions: Compound concentration 1000.0 nM
[21] = target: Receptor-type tyrosine-protein kinase FLT3 (Homo sapiens) (UniProt P36888); conditions: Compound concentration 1000.0 nM
[22] = target: G protein-coupled receptor kinase 3 (Homo sapiens) (UniProt P35626); conditions: Compound concentration 1000.0 nM
[23] = target: Serine/threonine-protein kinase ICK (Homo sapiens) (UniProt Q9UPZ9); conditions: Compound concentration 1000.0 nM
[24] = target: LIM domain kinase 2 (Homo sapiens) (UniProt P53671); conditions: Compound concentration 1000.0 nM
[25] = target: Leucine-rich repeat serine/threonine-protein kinase 2 (Homo sapiens) (UniProt Q5S007); conditions: Compound concentration 1000.0 nM
[26] = target: Dual specificity mitogen-activated protein kinase kinase 4 (Homo sapiens) (UniProt P45985); conditions: Compound concentration 1000.0 nM
[27] = system: Hepatocyte growth factor receptor (Homo sapiens), P08581 [M1250T]; conditions: Compound concentration 1000.0 nM
[28] = target: Serine/threonine-protein kinase 4 (Homo sapiens) (UniProt Q13043); conditions: Compound concentration 1000.0 nM
[29] = target: Serine/threonine-protein kinase 24 (Homo sapiens) (UniProt Q9Y6E0); conditions: Compound concentration 1000.0 nM
Serine/threonine-protein kinase 24 (Homo sapiens), sequence (Q9Y6E0 whole entry, looked up): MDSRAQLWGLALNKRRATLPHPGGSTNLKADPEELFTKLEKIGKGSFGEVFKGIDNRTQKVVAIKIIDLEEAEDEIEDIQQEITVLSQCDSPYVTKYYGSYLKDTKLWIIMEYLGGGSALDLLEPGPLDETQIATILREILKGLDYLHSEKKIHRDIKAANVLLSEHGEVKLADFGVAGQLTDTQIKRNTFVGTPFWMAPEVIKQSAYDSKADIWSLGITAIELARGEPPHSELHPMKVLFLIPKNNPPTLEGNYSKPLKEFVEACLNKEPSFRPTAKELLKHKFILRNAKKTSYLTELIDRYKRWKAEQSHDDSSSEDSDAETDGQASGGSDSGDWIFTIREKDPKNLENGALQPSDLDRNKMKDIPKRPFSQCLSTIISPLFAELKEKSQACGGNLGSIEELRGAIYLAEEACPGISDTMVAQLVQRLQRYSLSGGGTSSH

[30] = target: Serine/threonine-protein kinase PAK 3 (Homo sapiens) (UniProt O75914); conditions: Compound concentration 1000.0 nM
[31] = target: Serine/threonine-protein kinase PknB (Mycobacterium tuberculosis) (UniProt P9WI81); conditions: Compound concentration 1000.0 nM
[32] = target: cGMP-dependent protein kinase 1 (Homo sapiens) (UniProt Q13976); conditions: Compound concentration 1000.0 nM
[33] = target: Protein-tyrosine kinase 2-beta (Homo sapiens) (UniProt Q14289); conditions: Compound concentration 1000.0 nM
[34] = system: Proto-oncogene tyrosine-protein kinase receptor Ret (Homo sapiens), P07949 [M918T]; conditions: Compound concentration 1000.0 nM
[35] = target: Rho-associated protein kinase 1 (Homo sapiens) (UniProt Q13464); conditions: Compound concentration 1000.0 nM
[36] = target: Ribosomal protein S6 kinase alpha-4 (Homo sapiens) (UniProt O75676); conditions: Compound concentration 1000.0 nM
[37] = target: Tyrosine-protein kinase Srms (Homo sapiens) (UniProt Q9H3Y6); conditions: Compound concentration 1000.0 nM
[38] = target: Serine/threonine-protein kinase TAO1 (Homo sapiens) (UniProt Q7L7X3); conditions: Compound concentration 1000.0 nM
[39] = target: Serine/threonine-protein kinase TAO2 (Homo sapiens) (UniProt Q9UL54); conditions: Compound concentration 1000.0 nM
[40] = target: Serine/threonine-protein kinase TBK1 (Homo sapiens) (UniProt Q9UHD2); conditions: Compound concentration 1000.0 nM
[41] = target: Serine/threonine-protein kinase TNNI3K (Homo sapiens) (UniProt Q59H18); conditions: Compound concentration 1000.0 nM
[42] = target: High affinity nerve growth factor receptor (Homo sapiens) (UniProt P04629); conditions: Compound concentration 1000.0 nM
[43] = target: 5-hydroxytryptamine receptor 1D (Homo sapiens) (UniProt P28221); conditions: Compound concentration 10.0 uM
[44] = target: D(2) dopamine receptor (Homo sapiens) (UniProt P14416); conditions: Compound concentration 10.0 uM
Histamine H4 receptor = Histamine H4 receptor (Homo sapiens, UniProt Q9H3N8); conditions: Compound concentration 10.0 uM
[45] = target: Muscarinic acetylcholine receptor M4 (Homo sapiens) (UniProt P08173); conditions: Compound concentration 10.0 uM

Tyrosine-protein kinase ABL2 (Homo sapiens), sequence (P42684 whole entry): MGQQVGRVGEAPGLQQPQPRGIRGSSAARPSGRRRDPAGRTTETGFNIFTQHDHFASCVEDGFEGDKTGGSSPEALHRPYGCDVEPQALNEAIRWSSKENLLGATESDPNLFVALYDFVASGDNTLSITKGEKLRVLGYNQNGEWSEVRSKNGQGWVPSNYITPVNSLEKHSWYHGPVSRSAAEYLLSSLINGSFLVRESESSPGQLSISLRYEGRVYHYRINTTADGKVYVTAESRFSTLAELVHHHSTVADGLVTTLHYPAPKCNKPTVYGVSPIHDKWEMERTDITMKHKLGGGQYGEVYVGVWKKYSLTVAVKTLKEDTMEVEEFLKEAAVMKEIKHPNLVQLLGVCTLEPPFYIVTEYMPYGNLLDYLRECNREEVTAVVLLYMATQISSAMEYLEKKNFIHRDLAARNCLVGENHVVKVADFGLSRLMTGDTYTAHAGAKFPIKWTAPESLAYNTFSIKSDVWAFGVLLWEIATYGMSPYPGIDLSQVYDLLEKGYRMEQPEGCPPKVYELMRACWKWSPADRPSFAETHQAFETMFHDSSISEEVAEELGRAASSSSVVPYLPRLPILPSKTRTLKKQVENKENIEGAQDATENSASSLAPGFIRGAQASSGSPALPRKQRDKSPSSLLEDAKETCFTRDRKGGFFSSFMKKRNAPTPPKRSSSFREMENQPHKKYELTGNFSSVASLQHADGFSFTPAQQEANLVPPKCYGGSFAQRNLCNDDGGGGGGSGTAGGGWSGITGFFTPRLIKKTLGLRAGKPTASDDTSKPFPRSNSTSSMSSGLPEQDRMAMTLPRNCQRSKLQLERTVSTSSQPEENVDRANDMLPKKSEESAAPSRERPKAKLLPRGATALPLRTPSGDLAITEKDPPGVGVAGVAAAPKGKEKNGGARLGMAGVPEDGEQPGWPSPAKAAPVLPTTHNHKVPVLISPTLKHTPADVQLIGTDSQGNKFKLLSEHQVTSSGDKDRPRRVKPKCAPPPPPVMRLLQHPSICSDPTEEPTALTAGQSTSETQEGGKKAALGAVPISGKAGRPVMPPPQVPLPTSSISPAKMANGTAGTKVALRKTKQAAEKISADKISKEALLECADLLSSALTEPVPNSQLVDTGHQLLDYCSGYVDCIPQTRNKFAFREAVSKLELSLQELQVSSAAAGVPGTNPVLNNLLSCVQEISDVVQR

CCC(=O)N[C@H]1CC[C@@H](C(=O)N(C)c2ccc(-c3nc4ccccc4o3)cc2)C1 [BI 99179]
inactive: residual activity [1] 86% | residual activity [2] 85% | residual activity [3] 100% | residual activity [4] 89% | residual activity [5] 86% | residual activity [6] 76% | residual activity [7] 100% | residual activity [8] 100% | residual activity [9] 94% | residual activity [10] 100% | residual activity [11] 95% | residual activity [12] 95% | residual activity [13] 100% | residual activity [14] 95% | residual activity [15] 100% | residual activity [16] 100% | residual activity [17] 100% | residual activity [18] 87% | residual activity [19] 93% | residual activity [20] 100% | residual activity [21] 85% | residual activity [22] 80% | residual activity [23] 70% | residual activity [24] 100% | residual activity [25] 71% | residual activity [26] 95% | residual activity [27] 92% | residual activity [28] 100% | residual activity [29] 95% | residual activity [30] 98% | residual activity [31] 86% | residual activity [32] 100% | residual activity [33] 100% | residual activity [34] 100% | residual activity [35] 100% | residual activity [36] 79% | residual activity [37] 89% | residual activity [38] 100% | residual activity [39] 76% | residual activity [40] 78% | residual activity [41] 100% | residual activity [42] 75% | inhibition [43] 6.85% | inhibition [44] 14.3% | inhibition (Histamine H4 receptor) 39.3% | inhibition [45] 28.9%

CCC(=O)N[C@@H]1CC[C@H](C(=O)N(C)c2ccc(-c3nc4ccccc4o3)cc2)C1 [BI 99990]
active: inhibition (Histamine H4 receptor) 55.3%
inactive: residual activity [1] 76% | residual activity [2] 76% | residual activity [3] 100% | residual activity [4] 72% | residual activity [5] 99% | residual activity [6] 75% | residual activity [7] 100% | residual activity [8] 100% | residual activity [9] 100% | residual activity [10] 82% | residual activity [11] 100% | residual activity [12] 90% | residual activity [13] 100% | residual activity [14] 100% | residual activity [15] 100% | residual activity [16] 100% | residual activity [17] 100% | residual activity [18] 100% | residual activity [19] 88% | residual activity [20] 100% | residual activity [21] 84% | residual activity [22] 100% | residual activity [23] 92% | residual activity [24] 100% | residual activity [25] 100% | residual activity [26] 100% | residual activity [27] 100% | residual activity [28] 90% | residual activity [29] 100% | residual activity [30] 98% | residual activity [31] 78% | residual activity [32] 100% | residual activity [33] 100% | residual activity [34] 100% | residual activity [35] 100% | residual activity [36] 100% | residual activity [37] 84% | residual activity [38] 97% | residual activity [39] 89% | residual activity [40] 65% | residual activity [41] 99% | residual activity [42] 100% | inhibition [43] -8.27% | inhibition [44] 18.6% | inhibition [45] 5.19%
